The values below come from patent US4452786A, “Condurango glycoside compounds, processes for their preparation, antitumor agents comprising them and compositions” (Zenyaku Kogyo Kabushiki Kaisha, priority 1980, dated 1984).

Structures are written as SMILES.

For orientation: LD50 means the dose expected to kill half of the subjects tested. Low readings indicate a more toxic substance, high ones a less toxic substance.

Data set [1] in a line: Acute toxicity, intraperitoneal administration to mice, five days observation. It counts as in vivo. The following applies: mouse, in vivo, ip, intraperitoneally, five weeks old ddy male mice. From the text: (§1) Next, the acute toxicity of the compounds of the present invention is as follows.
For a further data set, the system named is Ehrlich carcinoma. Put plainly: Screening test against Ehrlich carcinoma, subcutaneous solid type, in mice (T/C of tumor weight on thirtieth day). It counts as in vivo, ddy male mice. To be noted: intraperitoneally, once per day for ten days, average tumor weight on thirtieth day. On the procedure: The activity of the compounds of the present invention against Ehrlich carcinoma was confirmed by the screening test mentioned below.
Ehrlich carcinoma was employed for the determination of the antitumor properties, and the tumor to be tested was of subcutaneous solid type.
The animal group to which the compounds of the present invention were administered consisted of seven mice, whereas the control group consisted of ten mice.
Six weeks old ddy male mice (body weight: 28-30 g) were employed except for the case where condurango glycoside Ao or Co was administered; in the latter case those weighing 20-26 g and being five weeks old were used.
The tumors were transplanted intraperitoneally in the mice. On the seventh day after the transplantation, the well grown cells of the tumors were taken out, and 1.5×10^6 cells (3.0×10^6 cells in the case where condurango glycoside Ao or Co was given) thereof was transplanted subcutaneously in the inguinal region of the mice to form solid tumors. At and after 24 hours after the transplantation, the compounds of the present invention dissolved in physiological saline solutions were administered to the mice intraperitoneally.
The volume of the respective solutions administered was 0.2 ml per mouse at one time, and the administration was continued for ten days at a rate of one time per day. Only physiological saline solutions were given to the mice of the control group.
On the thirtieth day after the transplantation, the tumors were taken out and measured to get the average weight of the tumors of the mice of the group to which the compounds of the present invention had been administered (T) and that of the control group (C) and to calculate the T/C (%).

Another data set deals with ddy male mice. Put plainly: Acute toxicity, intraperitoneal administration to mice, five days observation. The class given is in vivo. The following applies: intraperitoneally, five weeks old ddy male mice, 7200 min.
Excerpt: as §1

The compound `COC1CC(OC2CCC3(C)C(CCC4C3C(OC(=O)C=Cc3ccccc3)C(OC(C)=O)C35COC6(C)OC43CCC65)C2)OC(C)C1OC1CC(OC)C(OC2OC(C)C(OC3OC(CO)C(O)C(O)C3O)C(OC)C2O)C(C)O1` (stereo not drawn) [Condurango glycoside Bo, condurango glycoside Bo] gave an LD50 at 120 h in data set [1] of 615 mg/kg. Besides, the “T/C (%)” value in the data set with Ehrlich carcinoma (8 mg/kg × 10 times) turned out to be 23.3%; in the data set on Ehrlich carcinoma (16 mg/kg × 10 times), 11.8%; in the data set with Ehrlich carcinoma (32 mg/kg × 10 times), 10.0%.

In data set [1], `COC1CC(OC2CCC3(C)C(CCC4C3C(OC(=O)C=Cc3ccccc3)C(OC(C)=O)C35COC(C)(OC)C3CCC45O)C2)OC(C)C1OC1CC(OC)C(OC2OC(C)C(OC3OC(CO)C(O)C(O)C3O)C(OC)C2O)C(C)O1` (stereo not drawn) [20-O-methyl-condurango glycoside Do] yielded an LD50 at 120 h of 603 mg/kg. Also, the results for the “T/C (%)” value with Ehrlich carcinoma (8 mg/kg × 10 times) and in the data set on Ehrlich carcinoma (16 mg/kg × 10 times) were 16.5% and 11.6%, respectively.

The compound `COC1CC(OC2CCC3(C)C(CCC4C3C(OC(=O)C=Cc3ccccc3)C(OC(C)=O)C3(C)C(C(C)=O)CCC43O)C2)OC(C)C1OC1CC(OC)C(OC2OC(C)C(OC3OC(CO)C(O)C(O)C3O)C(OC)C2O)C(C)O1` (stereo not drawn) [Condurango glycoside Ao, condurango glycoside Ao] yielded an LD50 at 120 h in data set [1] of 75 mg/kg. The results for the “T/C (%)” value in the data set with Ehrlich carcinoma (8 mg/kg × 10 times) and in the data set with Ehrlich carcinoma (16 mg/kg × 10 times) were 32.1% and 27.3%, respectively.

Consider `COC1CC(OC2CCC3(C)C(CCC4C3C(OC(=O)C=Cc3ccccc3)C(OC(C)=O)C3(C)C(C(C)O)CCC43O)C2)OC(C)C1OC1CC(OC)C(OC2OC(C)C(OC3OC(CO)C(O)C(O)C3O)C(OC)C2O)C(C)O1` (stereo not drawn) [Condurango glycoside Co, condurango glycoside Co], for which, in data set [1], the LD50 at 120 h came out at 375 mg/kg. The “T/C (%)” value in the data set with Ehrlich carcinoma (16 mg/kg × 10 times) is on record as 30.8%; in the data set on Ehrlich carcinoma (32 mg/kg × 10 times) it was 20.1%.

Consider `COC1CC(OC2CCC3(C)C(CCC4C3C(OC(=O)C=Cc3ccccc3)C(OC(C)=O)C35COC(C)(OC)C3CCC45O)C2)OC(C)C1OC1CC(OC)C(OC2OC(C)C(OC3OC(CO)C(O)C(O)C3O)C(OC)C2O)C(C)O1` (stereo not drawn) [20-Iso-O-methyl-condurango glycoside Do, 20-iso-O-methyl-condurango glycoside Do], for which the 50% lethal dose (LD50) in the data set on ddy male mice is recorded as 642 mg/kg. The “T/C (%)” value with Ehrlich carcinoma (8 mg/kg × 10 times) is recorded as 38.1%; with Ehrlich carcinoma (16 mg/kg × 10 times), 26.3%; with Ehrlich carcinoma (32 mg/kg × 10 times) it was 18.0%.

As for `COC1CC(OC2CCC3(C)C(CCC4C3C(OC(=O)C=Cc3ccccc3)C(OC(C)=O)C35COC(C)(O)C3CCC45O)C2)OC(C)C1OC1CC(OC)C(OC2OC(C)C(OC3OC(CO)C(O)C(O)C3O)C(OC)C2O)C(C)O1` (stereo not drawn) [Condurango glycoside Do, condurango glycoside Do], in data set [1], the LD50 at 120 h was found to be 630 mg/kg. Further, the “T/C (%)” value with Ehrlich carcinoma (8 mg/kg × 10 times) is given as 29.0%; in the data set with Ehrlich carcinoma (16 mg/kg × 10 times), 53.8%; in the data set with Ehrlich carcinoma (32 mg/kg × 10 times) it was 9.5%.
